Reference: patent US20040110763A1, “Pyrazolopyridine compound and pharmaceutical use thereof” (priority 2000, published 2004)

SMILES | melting point [°C]
COc1ccn2nc(-c3ccccc3)c(-c3ccc(=O)n(C4CCOC4)n3)c2c1 (centres unmarked) [Example 118, 5-Methoxy-3-[3-oxo-2-(tetrahydrofuran-3-yl)-2,3-dihydropyridazin-6-yl]-2-phenylpyrazolo[1,5-a]pyridine] | 207 to 208
COc1ccn2nc(-c3ccccc3)c(-c3ccc(=O)n([C@@H]4CCOC4)n3)c2c1 [Example 119, 5-Methoxy-3-[3-oxo-2-((3R)-tetrahydrofuran-3-yl)-2,3-dihydropyridazin-6-yl]-2-phenylpyrazolo[1,5-a]pyridine] | 194 to 195
COc1ccn2nc(-c3ccccc3)c(-c3ccc(=O)n([C@H]4CCOC4)n3)c2c1 [Example 120, 5-Methoxy-3-[3-oxo-2-((3S)-tetrahydrofuran-3-yl)-2,3-dihydropyridazin-6-yl]-2-phenylpyrazolo[1,5-a]pyridine] | 194 to 195
COCC(C)n1nc(-c2c(-c3ccccc3)nn3ccc(OC)cc23)ccc1=O (centres unmarked) [Example 121, 5-Methoxy-3-[3-oxo-2-(1-methoxy-2-propyl)-2,3-dihydropyridazin-6-yl]-2-phenylpyrazolo[1,5-a]pyridine] | 138 to 139
COc1ccn2nc(-c3ccccc3)c(-c3ccc(=O)n(C4CCN(C)CC4)n3)c2c1 [Example 122, 5-methoxy-3-[3-oxo-2-(1-methylpiperidin-4-yl)-2,3-dihydropyridazin-6-yl]-2-phenylpyrazolo[1,5-a]pyridine] | 154 to 155
COc1ccn2nc(-c3ccccc3)c(-c3ccc(=O)n(C4CCCN(C)C4)n3)c2c1 (centres unmarked) [Example 123, 5-Methoxy-3-[3-oxo-2-(1-methylpiperidin-3-yl)-2,3-dihydropyridazin-6-yl]-2-phenylpyrazolo[1,5-a]pyridine] | 179 to 180
COc1ccn2nc(-c3ccccc3)c(-c3ccc(=O)n(C4CCOCC4)n3)c2c1 [Example 124, 5-Methoxy-3-[3-oxo-2-(tetrahydropyran-4-yl)-2,3-dihydropyridazin-6-yl]-2-phenylpyrazolo[1,5-a]pyridine] | 224 to 225
COc1ccn2nc(-c3ccccc3F)c(-c3ccc(=O)n(C)n3)c2c1 [Example 126, 5-Methoxy-3-(3-oxo-2-methyl-2,3-dihydropyridazin-6-yl)-2-(2-fluorophenyl)pyrazolo[1,5-a]pyridine] | 220.5 to 221.5
COc1ccn2nc(-c3ccccc3F)c(-c3ccc(=O)n(C(C)C)n3)c2c1 [Example 127, 5-Methoxy-3-(3-oxo-2-isopropyl-2,3-dihydropyridazin-6-yl)-2-(2-fluorophenyl)pyrazolo[1,5-a]pyridine] | 174 to 175
COc1ccn2nc(-c3ccc(F)cc3)c(-c3ccc(=O)n(C(C)C)n3)c2c1 [Example 129, 5-Methoxy-3-(3-oxo-2-isopropyl-2,3-dihydropyridazin-6-yl)-2-(4-fluorophenyl)pyrazolo[1,5-a]pyridine] | 176 to 177
COc1ccn2nc(-c3ccc(F)cc3)c(-c3ccc(=O)n(C)n3)c2c1 [Example 130, 5-Methoxy-3-(3-oxo-2-methyl-2,3-dihydropyridazin-6-yl)-2-(4-fluorophenyl)pyrazolo[1,5-a]pyridine] | 221 to 222
CCn1nc(-c2c(-c3ccc(F)cc3)nn3ccc(OC)cc23)ccc1=O [Example 131, 5-Methoxy-3-(3-oxo-2-ethyl-2,3-dihydropyridazin-6-yl)-2-(4-fluorophenyl)pyrazolo[1,5-a]pyridine] | 179 to 180
CCCn1nc(-c2c(-c3ccc(F)cc3)nn3ccc(OC)cc23)ccc1=O [Example 132, 5-Methoxy-3-(3-oxo-2-propyl-2,3-dihydropyridazin-6-yl)-2-(4-fluorophenyl)pyrazolo[1,5-a]pyridine] | 190 to 191
Nc1cccc2c(-c3ccc(=O)[nH]n3)c(-c3ccccc3)nn12 [Example 133, 7-amino-3-(3-oxo-2,3-dihydropyridazin-6-yl)-2-phenylpyrazolo[1,5-a]pyridine] | 157 to 159
CC(C)n1nc(-c2c(-c3ccccc3)nn3c(N)cccc23)ccc1=O [Example 134, 7-Amino-3-(3-oxo-2-isopropyl-2,3-dihydropyridazin-6-yl)-2-phenylpyrazolo[1,5-a]pyridine] | 218 to 219
COc1ccn2nc(-c3ccccc3)c(-c3ccc(=O)n(C(C)C)n3)c2c1Br [Example 135, 4-bromo-5-methoxy-3-(3-oxo-2-isopropyl-2,3-dihydropyridazin-6-yl)-2-phenylpyrazolo[1,5-a]pyridine] | 205 to 206
CC(C)n1nc(-c2c(-c3ccccc3)nn3ccc(C#CC(C)(C)O)cc23)ccc1=O [Example 136, 5-(3-hydroxy-3-methyl-1-butynyl)-3-(3-oxo-2-isopropyl-2,3-dihydropyridazin-6-yl)-2-phenylpyrazolo[1,5-a]pyridine] | 171 to 172
CC(C)n1nc(-c2c(-c3ccccc3)nn3ccc(C#Cc4ccccc4)cc23)ccc1=O [Example 138, 5-Phenylethynyl-3-(3-oxo-2-isopropyl-2,3-dihydropyridazin-6-yl)-2-phenylpyrazolo[1,5-a]pyridine] | 185 to 186
CC(C)n1nc(-c2c(-c3ccccc3)nn3ccc(C(=O)NC4CC4)cc23)ccc1=O [Example 139, N-cyclopropyl-3-(3-oxo-2-isopropyl-2,3-dihydropyridazin-6-yl)-2-phenylpyrazolo[1,5-a]pyridine-5-carboxamide] | 184 to 185
CC(C)n1nc(-c2c(-c3ccccc3)nn3ccc(C(=O)NC4CCCCCC4)cc23)ccc1=O [Example 140, N-Cycloheptyl-3-(3-oxo-2-isopropyl-2,3-dihydropyridazin-6-yl)-2-phenylpyrazolo[1,5-a]pyridine-5-carboxamide] | 239 to 240
CCCCNC(=O)c1ccn2nc(-c3ccccc3)c(-c3ccc(=O)n(C(C)C)n3)c2c1 [Example 143, N-(n-Butyl)-3-(3-oxo-2-isopropyl-2,3-dihydropyridazin-6-yl)-2-phenylpyrazolo[1,5-a]pyridine-5-carboxamide] | 185 to 186
CC(C)n1nc(-c2c(-c3ccccc3)nn3ccc(C(=O)NCc4ccccn4)cc23)ccc1=O [Example 144, N-(2-Pyridinylmethyl)-3-(3-oxo-2-isopropyl-2,3-dihydropyridazin-6-yl)-2-phenylpyrazolo[1,5-a]pyridine-5-carboxamide] | 193 to 194
CC(C)n1nc(-c2c(-c3ccccc3)nn3ccc(N)cc23)ccc1=O [Example 146, 5-amino-3-(3-oxo-2-isopropyl-2,3-dihydropyridazin-6-yl)-2-phenylpyrazolo[1,5-a]pyridine] | 196 to 197
CC(=O)Nc1ccn2nc(-c3ccccc3)c(-c3ccc(=O)n(C(C)C)n3)c2c1 [Example 147, 5-acetylamino-3-(3-oxo-2-isopropyl-2,3-dihydropyridazin-6-yl)-2-phenylpyrazolo[1,5-a]pyridine] | 221 to 222

Next, values leading:

melting point [°C] | SMILES
266 to 267 | CC(C)n1nc(-c2c(-c3ccccc3)nn3ccc(NC(=O)c4ccccc4)cc23)ccc1=O [Example 148, 5-Benzoylamino-3-(3-oxo-2-isopropyl-2,3-dihydropyridazin-6-yl)-2-phenylpyrazolo[1,5-a]pyridine]
199 to 200 | CC(C)C(=O)Nc1ccn2nc(-c3ccccc3)c(-c3ccc(=O)n(C(C)C)n3)c2c1 [Example 149, 5-(2-Methylpropanoylamino)-3-(3-oxo-2-isopropyl-2,3-dihydropyridazin-6-yl)-2-phenylpyrazolo[1,5-a]pyridine]
193 to 194 | CC(C)n1nc(-c2c(-c3ccccc3)nn3ccc(NS(C)(=O)=O)cc23)ccc1=O [Example 150, 5-Methylsulfonylamino-3-(3-oxo-2-isopropyl-2,3-dihydropyridazin-6-yl)-2-phenylpyrazolo[1,5-a]pyridine]
213 to 214 | COC(=O)Nc1ccn2nc(-c3ccccc3)c(-c3ccc(=O)n(C(C)C)n3)c2c1 [Example 151, Methyl 3-(3-oxo-2-isopropyl-2,3-dihydropyridazin-6-yl)-2-phenylpyrazolo[1,5-a]pyridin-5-ylcarbamate]
266 to 267 | CC(C)n1nc(-c2c(-c3ccccc3)nn3ccc(N4CCCC4=O)cc23)ccc1=O [Example 153, 5-(2-oxo-1-pyrrolidinyl)-3-(3-oxo-2-isopropyl-2,3-dihydropyridazin-6-yl)-2-phenylpyrazolo [1,5-a]pyridine]
148 to 150 | COCN(COC)c1ccn2nc(-c3ccccc3)c(-c3ccc(=O)n(C(C)C)n3)c2c1 [Example 154, 5-[bis(methoxymethyl)amino]-3-(3-oxo-2-isopropyl-2,3-dihydropyridazin-6-yl)-2-phenylpyrazolo[1,5-a]pyridine]
92 to 96 | CC(=O)Nc1cccc2c(-c3ccc(=O)n(C(C)C)n3)c(-c3ccccc3)nn12 [Example 187, 7-Acetylamino-3-(3-oxo-2-isopropyl-2,3-dihydropyridazin-6-yl)-2-phenylpyrazolo[1,5-a]pyridine]
185 to 186 | COc1cccn2nc(-c3ccccc3)c(-c3ccc(=O)n(C(C)C)n3)c12 [Example 194, 4-Methoxy-3-(3-oxo-2-isopropyl-2,3-dihydropyridazin-6-yl)-2-phenylpyrazolo[1,5-a]pyridine]
229 to 230 | CC(C)n1nc(-c2c(-c3ccccc3)nn3cccc(O)c23)ccc1=O [Example 195, 4-Hydroxy-3-(3-oxo-2-isopropyl-2,3-dihydropyridazin-6-yl)-2-phenylpyrazolo[1,5-a]pyridine]
157 to 158 | CCOc1cccn2nc(-c3ccccc3)c(-c3ccc(=O)n(C(C)C)n3)c12 [Example 196, 4-ethoxy-3-(3-oxo-2-isopropyl-2,3-dihydropyridazin-6-yl)-2-phenylpyrazolo[1,5-a]pyridine]
176 to 177 | CCCOc1cccn2nc(-c3ccccc3)c(-c3ccc(=O)n(C(C)C)n3)c12 [Example 197, 4-n-Propoxy-3-(3-oxo-2-isopropyl-2,3-dihydropyridazin-6-yl)-2-phenylpyrazolo [1,5-a]pyridine]
